# Results published in paper PMC9459403, “New inhibitors of cathepsin V impair tumor cell proliferation and elastin degradation and increase immune cell cytotoxicity” (Computational and Structural Biotechnology Journal, 2022).
# Marks after values point to notes of the source that are not given here.
# Legend:
# Type in all cases: biochemical
# [1] = target: T1, human recombinant cathepsin L (Homo sapiens, UniProt P07711); test: Determination of relative inhibition, substrate Z-Phe-Arg-AMC; conditions: inhibitor 50 μM; substrate 2 μM; mean ± SD (n = 2); read-out: Cathepsin L Ri (%) relative inhibition
# T1 construct: made in house; host or cells: Escherichia coli
# T1 sequence (P07711 114-333): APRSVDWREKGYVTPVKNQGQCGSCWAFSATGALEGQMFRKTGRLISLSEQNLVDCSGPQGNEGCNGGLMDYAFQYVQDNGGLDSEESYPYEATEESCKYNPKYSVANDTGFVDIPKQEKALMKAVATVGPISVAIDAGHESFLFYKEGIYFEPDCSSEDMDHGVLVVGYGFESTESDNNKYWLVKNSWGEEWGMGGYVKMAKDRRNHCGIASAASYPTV
# Procedure: (§1) Human recombinant cathepsin V was expressed in Pichia Pastoris, and human recombinant cathepsin L was expressed in Escherichia coli, as reported, [51]. To determine the activities of cathepsins V and L, 100 mM acetate buffer (pH 5.5), containing 0.1 % PEG 8000 (Sigma-Aldrich, St. Louis, MO, USA), 5 mM cysteine, and 1.5 mM EDTA was used. Prior to the assay, the enzyme was activated in the assay buffer for 5 min at 37 °C.
# (§2) The effect of the inhibitors on cathepsin V and L activity was determined using the substrate Z-Phe-Arg-AMC (Bachem, Bubendorf, Switzerland). The reaction was initiated by adding 90 μL of the activated enzyme (final concentration 2.5 ng/mL and 0.02 nM for cathepsins V and L, respectively) to the wells of a black microtiter plate containing 5 μL of substrate (with a final concentration 2 μM) and 5 μL of inhibitor (with a final concentration of 50 μM). The formation of fluorescent degradation products during the reaction was monitored continuously at 460 nm ± 10 nm with excitation at 380 nm ± 20 nm at 37 °C on a Tecan Infinite M1000 (Mannedorf, Switzerland) spectrofluorometer. All assay mixtures contained 5 % (v/v) DMSO. To prevent false-positive inhibition due to the formation of compound aggregates, 0.01 % Triton X-100 was used. All measurements were performed in triplicate and repeated at least twice. Relative inhibition was calculated using the following equation: relative inhibition (%) = 100(1- vi/vo), where vi and vo denote the reaction velocities in the presence and absence of the inhibitor, respectively.
# Cathepsin V [2] = target: T2, Cathepsin V (Homo sapiens, UniProt O60911); test: as above; conditions: inhibitor 50 μM; substrate 2 μM; mean ± SD (n = 2); read-out: Cathepsin V Ri (%) relative inhibition
# T2 construct: made in house; host or cells: Pichia pastoris
# T2 sequence (O60911 114-334): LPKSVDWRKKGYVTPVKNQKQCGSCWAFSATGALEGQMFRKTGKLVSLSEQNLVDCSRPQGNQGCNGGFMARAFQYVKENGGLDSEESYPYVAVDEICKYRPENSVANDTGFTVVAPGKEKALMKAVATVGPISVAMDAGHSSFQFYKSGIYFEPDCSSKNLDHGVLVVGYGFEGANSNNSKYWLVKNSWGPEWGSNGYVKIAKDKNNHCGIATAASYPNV
# Procedure: as §1, §2
# [3] = target: T1, human recombinant cathepsin L; test: Determination of Ki values and mode of inhibition; conditions: mean ± SD (n = 2)
# Procedure: as §1
# (§3) Inhibition constants were calculated from reaction velocities measured at three substrate concentrations (0.5, 1, and 4 μM) in the presence of inhibitors at seven concentrations (0, 20, 40, 60, 80, 100, and 200 µM). The reaction was initiated by adding 90 μL of enzyme at final concentrations of 2.5 ng/mL and 0.02 nM for cathepsins V and L, respectively, to the wells of a black microtiter plate containing 5 μL of substrate and 5 μL of inhibitor. To evaluate cathepsin V and L activity, the substrate Z-Phe-Arg-AMC was used. The formation of the fluorescent degradation products was monitored as described above. All assay mixtures contained 5 % (v/v) DMSO. All measurements were performed in duplicates and repeated at least twice. The SigmaPlot® 12, Enzyme Kinetics Module™ 1.3 was used to calculate Ki values.
# Cathepsin V [4] = target: T2, Cathepsin V; test: Determination of Ki values and mode of inhibition; conditions: mean ± SD (n = 2)
# Procedure: as §1, §3
# Cathepsin V [5] = target: T2, Cathepsin V; test: Determination of binding reversibility (dilution method); conditions: inhibitor 100 μM, cathepsin V 500 ng/ml
# Procedure: Binding reversibility was determined according to the dilution method, which measures the recovery of enzymatic activity after rapid dilution of the enzyme-inhibitor complex. Cathepsin V (500 ng/ml) was incubated in the assay buffer with the inhibitor (100 μM). Half of the reaction mixture was immediately diluted 100-fold with the assay buffer and added to the wells of a black microplate containing 5 μL of substrate (at a final concentration of 2 μM), and the activity was measured. The other half of the reaction mixture was incubated for 2 h before it was diluted 100-fold, and then the activity was measured. The assay was performed in triplicates and repeated at least two times.
inhibition at 50 µM [1],inhibition at 50 µM (Cathepsin V [2]),SMILES,other results
4.8 ± 3.9%,-5.4 ± 2.4%,O=C(Nc1cc(Cl)ccc1Cl)c1cnc2n(c1=O)CCS2 [Compound 1],
20 ± 2.2%,16.4 ± 0.3%,Cc1ccc(Cl)c2sc(NC(=O)c3ccc(S(=O)(=O)N4CCc5ccccc5C4)cc3)nc12 [Compound 2],Ki [3]: 162 ± 1.8 µM
147 ± 88.7%,,Cc1cc(C)c2sc(NC(=O)c3ccc(S(=O)(=O)N4CCc5ccccc5C4)cc3)nc2c1 [Compound 3],
40.3 ± 4.5%,> 20%,COc1ccc(NC(C)=O)cc1NC(=O)c1n[nH]c2ccccc12 [Compound 6],Ki [3]: 635 ± 167 µM; Ki (Cathepsin V [4]): 371 ± 86.1 µM
-4.4 ± 2.1%,-20.3 ± 3.5%,O=C(NCCN1CCN(c2ccc(Cl)cc2)CC1)[C@H]1CC(=O)N(c2ccccc2)C1 [Compound 8],
17.5 ± 5.3%,18.9 ± 1.3%,COc1ccc(-c2cn3c(CCC(=O)Nc4nc5ccccc5s4)csc3n2)cc1 [Compound 9],
21.5 ± 1.2%,17.8 ± 3.3%,O=C(NCc1cccc2ccccc12)Nc1ccc2c(c1)CCCN2C(=O)c1cccs1 [Compound 10],
6.3 ± 2.6%,-3.1 ± 4.6%,Brc1ccccc1CNc1ncncc1-c1nc(-c2ccsc2)no1 [Compound 11],
15.6 ± 1.2%,-9.5 ± 9.2%,CC1Oc2ccccc2OC1C(=O)NCC#CCN1CCc2ccccc2C1 (stereo not shown) [Compound 12],
13.4 ± 1.4%,7.5 ± 5%,O=C(Nc1ccc(F)cc1)OC1CCCC(NC(=O)c2c(F)cccc2F)C1 (stereo not shown) [Compound 13],
13.1 ± 2.6%,7.8 ± 3.1%,O=C(NC[C@H]1CCCN1c1ccccc1)c1cccnc1 [Compound 14],
-5.4 ± 7.3%,-27.6 ± 9.1%,Cc1c(C(=O)N2CC(N3CCc4ccccc4C3)C2)cnn1-c1ccccc1 [Compound 15],
-1 ± 4.8%,-6.5 ± 0.9%,Cc1nccc(O[C@H]2CCN(S(=O)(=O)/C=C/c3ccccc3)C2)n1 [Compound 16],
9.4 ± 9.5%,-2.4 ± 5.6%,Cc1cc(CNC(=O)Cc2cccc3ccccc23)ncn1 [Compound 17],
13 ± 7.9%,6.7 ± 0.03%,Cc1noc(-c2cccn3c(CNC(=O)c4cc(-c5cccs5)n[nH]4)nnc23)n1 [Compound 18],
17.8 ± 13.7%,3.8 ± 3.5%,O=C(NCc1nnc2c(C(F)(F)F)cccn12)c1cc(-c2cccs2)n[nH]1 [Compound 19],
14.5 ± 2.4%,16.9 ± 0.6%,O=C(NCc1nnc2c(C(F)(F)F)cccn12)c1cc2cc(Cl)ccc2[nH]1 [Compound 20],
15.3 ± 2.9%,> 20%,COC(=O)Cc1c[nH]c2ccc(OCC3CO3)cc12 (stereo not shown) [Compound 21],Ki [3]: 236 ± 10.3 µM; Ki (Cathepsin V [4]): 159 ± 32.8 µM
11.1 ± 4.4%,-7.2 ± 7.7%,COc1ccc(C(=O)C2OC2c2cc3ccccc3o2)c(OCc2ccccc2)c1 (stereo not shown) [Compound 22],
11.9 ± 6.2%,-2.9 ± 1.8%,O=c1cc(-c2ccccc2)c2cc(Cl)c(OCC3CO3)cc2o1 (stereo not shown) [Compound 23],
17.7 ± 11.7%,0.8 ± 3.3%,O=C(c1cc(F)ccc1OCc1ccccc1)C1OC1c1ccc2c(c1)OCCO2 (stereo not shown) [Compound 24],
10.6 ± 4.5%,6.3 ± 4.6%,O=C(c1cc(Br)ccc1OCc1ccccc1)C1OC1c1cc2ccccc2o1 (stereo not shown) [Compound 26],Ki [3]: 375 ± 20.5 µM

inhibition at 50 µM [1],inhibition at 50 µM (Cathepsin V [2]),SMILES,other results
-4.6 ± 5.2%,1.1 ± 9%,O=C(N[C@H]1CCCN(Cc2ccccc2)C1)c1ccc(CN2CCCC2)o1 [Compound 28],
-2.4 ± 2%,-0.5 ± 1.2%,O=C(CN1Cc2ccccc2C1)NC1CCCN(Cc2cccc(O)c2)C1 (stereo not shown) [Compound 29],
-1.2 ± 0.3%,-2 ± 3.3%,CN(C)c1ccc(CC(=O)NC2CCCN(Cc3cccnc3)C2)cc1 (stereo not shown) [Compound 30],
20.9 ± 7.2%,29.2 ± 7%,O=C(Nc1nc2c(s1)CN(Cc1ccccc1)CC2)c1ccc(-c2ccccc2)cc1 [Compound 31],
4.7 ± 3.2%,6.9 ± 2.2%,O=C(Nc1nc2c(s1)CN(Cc1ccccc1)CC2)c1ccccc1 [Compound 32],
3.4 ± 4.4%,-1.6 ± 6.5%,CCOC(=O)N1CCC(NC(=O)NCc2ccc(OC)cc2)CC1 [Compound 33],
-3 ± 0.5%,,CC(=O)N1CCc2cc(C(=O)C(C)OC(=O)CCc3nc(-c4cccs4)no3)ccc21 (stereo not shown) [Compound 34],
12 ± 1.3%,16.6 ± 8.4%,O=C(NCC(O)CN1CCOCC1)c1cc2cc(Br)ccc2[nH]1 (stereo not shown) [Compound 35],
-0.6 ± 1.7%,15.2 ± 10%,COc1ccc(CNC(=O)N2CCC(C(N)=O)CC2)cc1 [Compound 36],
-2.1 ± 0.7%,-3.4 ± 2.9%,Cc1[nH]c(C(=O)NCCCc2nc3ccccc3[nH]2)c(C)c1C(=O)OC(C)C [Compound 37],
2.3 ± 3.1%,7.9 ± 0.4%,CNC(=O)C1(COC)CCCN1C(=O)CN1CCOCC1=O (stereo not shown) [Compound 38],
6.1 ± 0.7%,17.1 ± 7.2%,Cc1nc(C2OC2C(=O)c2ccccc2OCc2ccccc2)cs1 (stereo not shown) [Compound 39],Cathepsin L Ki′ (µM) [3]: 725.7 ± 142.3^e µM; Ki [3]: 726 ± 142 µM; Ki (Cathepsin V [4]): 403 ± 79.7 µM
-0.4 ± 2.5%,5.2 ± 1.8%,COCCN1CCC(CNC(=O)NCc2ccc(OC)cc2)CC1 [Compound 43],
1.1 ± 4.9%,11.1 ± 11.5%,COC(=O)N1CCC(CNC(=O)NCc2cccc3ccccc23)CC1 [Compound 44],
3.3 ± 2.4%,9.2 ± 6.4%,COC(=O)N1CCC(CNC(=O)NC(c2ccccc2)c2ccccc2)CC1 [Compound 45],
4.3 ± 4.1%,12.1 ± 9.8%,COc1ccc(CNC(=O)NCC2CCN(C(=O)N(C)C)CC2)cc1 [Compound 46],
5.7 ± 3.6%,20.4 ± 14.5%,O=C(NCC1CCN(C(=O)Oc2ccccc2)CC1)c1ccccc1 [Compound 48],Ki [3]: 1190 ± 357 µM; Ki (Cathepsin V [4]): 1190 ± 468 µM
12.9 ± 0.5%,22.9 ± 1%,Cc1cc(OCc2ccccc2)c(C(=O)C2OC2c2csc(-c3ccccc3)n2)cc1C (stereo not shown) [Compound 49],Ki [3]: 546 ± 114 µM; Ki (Cathepsin V [4]): 303 ± 11.3 µM
13.8 ± 0.5%,-2.9 ± 4%,COc1ccc(CNC(=O)N2CCC(C(=O)N3CCCCC3)CC2)cc1 [Compound 50],
-4 ± 7.3%,-9.8 ± 5.8%,O=C(NC(Cc1ccccc1)C(=O)O)C1CCC(CNC(=O)C2Cc3ccccc3CN2)CC1 (stereo not shown) [Compound 51],
-0.7 ± 1.5%,0.3 ± 8.8%,COC(=O)Cc1c[nH]c2ccc(OCC(O)CNC(C)C)cc12 (stereo not shown) [Compound 52],
,,"CC(C)C[C@H](NC(=O)[C@H]1O[C@@H]1C(=O)O)C(=O)NCCCCN=C(N)N [Compound E-64, reference compound]",binding reversibility: cathepsin V activity after 2 h incubation and 100-fold rapid dilution (Cathepsin V [5]): remained inhibited

SMILES,inhibition at 50 µM [1],inhibition at 50 µM (Cathepsin V [2]),other results
O=C(NCc1ccc(F)cc1)NCC1CCN(C(=O)Oc2ccccc2)CC1 [Compound 41],4.2 ± 0.9%,17.7 ± 6.1%,Cathepsin L Ki (µM) [3]: n.i.^g; Cathepsin L Ki′ (µM) [3]: n.i.^g; Cathepsin V Ki′ (µM) (Cathepsin V [4]): 612.5 ± 23.9^e µM; Ki (Cathepsin V [4]): 612 ± 23.9 µM
COc1ccc(CNC(=O)NCC2CCN(C(=O)Oc3ccccc3)CC2)cc1 [Compound 47],4.4 ± 4.6%,9.5 ± 2.5%,
